System: A/Kawasaki/UTK-4/09 (H1N1)
Format: cell-based, influenza A virus (H1N1)

CCOC(=O)C1=C[C@@H](OC(CC)CC)[C@H](NC(C)=O)[C@@H](N)C1 [oseltamivir]
susceptibility of virus in cell culture (in words): resistance
